# Experiments:
# [1] = test system: luciferase reporter under the control of a methylated CMV promoter in leukemia KG-1 cells; assay: CMV-luc reexpression (luciferase reporter) in KG-1 cells; type: cell-based, human; settings: 24 hour incubation, fold induction vs DMSO, mean ± standard error
# Method: Aiming at identifying new DNMT inhibitors, plant extract samples were tested for their ability to reactivate gene expression upon use of an integrated luciferase reporter system under the control of a methylated CMV promoter in leukemia KG-1 cells which inhibits its expression (CMV-luc assay reported in following Table). […] The extract was fractionated by preparative HPLC. Identification of the active components was accomplished by HRMS and NMR spectroscopy. The pure compounds isolated from the extract through bio-guided fractionation are trilobine and bisbenzylisoquinoline analogue products. The active compounds were then further evaluated for their ability to inhibit DNMTs in vitro and DNA methylation in cancer cells.
# KG-1 cells were stably transfected with the firefly luciferase reporter gene (luc+ from pGL3; Promega) under the control of the cytomegalovirus (CMV) promoter (from pEGFP-N1; Clontech Laboratories Inc.) partially methylated (50%). 20,000 cells per well were seeded in a 96-well plate. After 24 hour incubation in the presence of the test compound or solvant (DMSO), the induction of the promoter was measured by quantification of the luciferase signal with the Brite-lite assay system (PerkinElmer) according to the manufacturer's protocol. The luminescence was measured on an EnVision multilabel plate reader (PerkinElmer), and the data are expressed as the fold induction as compared with the DMSO control. The mean of three experiments and the standard error is reported.
# [2] = molecular target: T1, human C-terminal DNMT3A (a.a. 623-908) (Homo sapiens, UniProt Q9Y6K1); assay: hDNMT3A restriction-based fluorescence assay; type: biochemical; settings: for inhibition at 10 µM / inhibition at 32 µM: read-out: hDNMT 3A inhibition, Inhibition (%); for EC50: brackets: 95% confidence interval, read-out: hDNMT 3A inhibition EC50
# T1 construct: The human C-terminal DNMT3A (a.a. 623-908); made in house
# Text: hDNMT3A enzyme inhibition was adapted from the restriction-based fluorescence assay protocol as described in the literature (Ceccaldi et al. ChemBioChem 2011, 12, 1337-1345). Briefly, a 5′-labelled biotin oligonucleotide is hybridized to its complementary strand labelled with 6-carboxyfluorescein at the 3′-end into a 384 well microplate (black Optiplates; Perkin Elmer) pre-coated with avidin. The duplex contains a unique CpG site overlapping with a restriction site of a methylation sensitive restriction enzyme. The human C-terminal DNMT3A (a.a. 623-908), produced as described in the literature (Gros et al. Nucl. Acids Res. 2013, 41(19):e185), was added in each well (200 ng/well) and mixed with the chemical compounds at desired concentrations and freshly prepared AdoMet (20 μM final concentration) to start the reaction in a total volume of 50 μL. After 1 hour incubation at 37° C. each well were washed three times with PBS, Tween-20 0.05%, NaCl (500 mM) and three more times with PBST. Specific fluorescent signals were detected with the methylation-sensitive restriction enzyme HpyCH4IV (NEB) as described and measured on a Perkin Elmer Envision detector. The percentage of inhibition is reported. The formula used to calculate the percentage of inhibition is [(X−Y)/X]×100, where X is the signal determined in the absence of the inhibitor and Y is the signal obtained in the presence of the inhibitor. The concentration at which 50% of efficacy of inhibition is observed (EC50) was determined by analysis of a concentration range of the tested compound in triplicates. The non-linear regression fittings with sigmoidal dose-response (variable slope) were performed with GraphPad Prism 4.03 (GraphPad Software).
# [3] = molecular target: T2, His-DNMT1 (182 kDa, human) (Homo sapiens, UniProt P26358); assay: hDNMT1 assay ([methyl-3H] SAM Flashplate); type: biochemical; settings: read-out: hDNMT1 percentage of inhibition
# T2 construct: His; made in house
# Method: His-DNMT1 (182 kDa, human) was cloned, expressed and purified as described in the literature (Halby et al. ChemBioChem 2012, 13, 157-165). The reaction was performed in a […] total reaction volume in low volume NBS™ 384-well microplates (Corning), containing the tested compound (up to 1% DMSO), 1 μM of a SAM/[methyl-^3H] SAM (3 TBq/mmol, PerkinElmer) mix in a ratio of 3-to-1 (isotopic dilution 1*:3), 0.3 μM of biotinylated hemimethylated DNA duplex (5′-GATmCGCmCGATGmCGmCGAATmCGmCGATmCGATGmCGAT-3′ and BIOT-5′-[…]-3′), and 90 nM of DNMT1 in methylation buffer (20 mM HEPES pH 7.2, 1 mM EDTA, 50 mM KCl, 25 μg/mL BSA). The reaction was incubated at 37° C. for 2 hours. 8 μL, are then transferred into a streptavidin 96-well scintillant coated Flashplate™ (PerkinElmer) containing 190 μL of 20 μM SAH in 50 mM Tris-HCl pH 7.4. The Flashplate™ was agitated at room temperature for 1 hour and read in 200 μL of 50 mM Tris-HCl pH 7.4 on TopCount NXT (PerkinElmer). The percentage of inhibition is reported. The formula used to calculate the percentage of inhibition is [(X−Y)/X]×100, where X is the signal determined in the absence of the inhibitor and Y is the signal obtained in the presence of the inhibitor.
# T1 sequence (Q9Y6K1 627-912): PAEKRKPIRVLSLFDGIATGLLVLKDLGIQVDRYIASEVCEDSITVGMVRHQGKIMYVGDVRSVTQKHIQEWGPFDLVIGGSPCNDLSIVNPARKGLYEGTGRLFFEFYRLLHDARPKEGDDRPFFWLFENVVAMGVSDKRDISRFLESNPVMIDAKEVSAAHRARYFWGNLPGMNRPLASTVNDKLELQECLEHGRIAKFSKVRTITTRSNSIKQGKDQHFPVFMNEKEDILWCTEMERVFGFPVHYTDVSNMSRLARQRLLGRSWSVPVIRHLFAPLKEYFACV
# T2 sequence (P26358 whole entry): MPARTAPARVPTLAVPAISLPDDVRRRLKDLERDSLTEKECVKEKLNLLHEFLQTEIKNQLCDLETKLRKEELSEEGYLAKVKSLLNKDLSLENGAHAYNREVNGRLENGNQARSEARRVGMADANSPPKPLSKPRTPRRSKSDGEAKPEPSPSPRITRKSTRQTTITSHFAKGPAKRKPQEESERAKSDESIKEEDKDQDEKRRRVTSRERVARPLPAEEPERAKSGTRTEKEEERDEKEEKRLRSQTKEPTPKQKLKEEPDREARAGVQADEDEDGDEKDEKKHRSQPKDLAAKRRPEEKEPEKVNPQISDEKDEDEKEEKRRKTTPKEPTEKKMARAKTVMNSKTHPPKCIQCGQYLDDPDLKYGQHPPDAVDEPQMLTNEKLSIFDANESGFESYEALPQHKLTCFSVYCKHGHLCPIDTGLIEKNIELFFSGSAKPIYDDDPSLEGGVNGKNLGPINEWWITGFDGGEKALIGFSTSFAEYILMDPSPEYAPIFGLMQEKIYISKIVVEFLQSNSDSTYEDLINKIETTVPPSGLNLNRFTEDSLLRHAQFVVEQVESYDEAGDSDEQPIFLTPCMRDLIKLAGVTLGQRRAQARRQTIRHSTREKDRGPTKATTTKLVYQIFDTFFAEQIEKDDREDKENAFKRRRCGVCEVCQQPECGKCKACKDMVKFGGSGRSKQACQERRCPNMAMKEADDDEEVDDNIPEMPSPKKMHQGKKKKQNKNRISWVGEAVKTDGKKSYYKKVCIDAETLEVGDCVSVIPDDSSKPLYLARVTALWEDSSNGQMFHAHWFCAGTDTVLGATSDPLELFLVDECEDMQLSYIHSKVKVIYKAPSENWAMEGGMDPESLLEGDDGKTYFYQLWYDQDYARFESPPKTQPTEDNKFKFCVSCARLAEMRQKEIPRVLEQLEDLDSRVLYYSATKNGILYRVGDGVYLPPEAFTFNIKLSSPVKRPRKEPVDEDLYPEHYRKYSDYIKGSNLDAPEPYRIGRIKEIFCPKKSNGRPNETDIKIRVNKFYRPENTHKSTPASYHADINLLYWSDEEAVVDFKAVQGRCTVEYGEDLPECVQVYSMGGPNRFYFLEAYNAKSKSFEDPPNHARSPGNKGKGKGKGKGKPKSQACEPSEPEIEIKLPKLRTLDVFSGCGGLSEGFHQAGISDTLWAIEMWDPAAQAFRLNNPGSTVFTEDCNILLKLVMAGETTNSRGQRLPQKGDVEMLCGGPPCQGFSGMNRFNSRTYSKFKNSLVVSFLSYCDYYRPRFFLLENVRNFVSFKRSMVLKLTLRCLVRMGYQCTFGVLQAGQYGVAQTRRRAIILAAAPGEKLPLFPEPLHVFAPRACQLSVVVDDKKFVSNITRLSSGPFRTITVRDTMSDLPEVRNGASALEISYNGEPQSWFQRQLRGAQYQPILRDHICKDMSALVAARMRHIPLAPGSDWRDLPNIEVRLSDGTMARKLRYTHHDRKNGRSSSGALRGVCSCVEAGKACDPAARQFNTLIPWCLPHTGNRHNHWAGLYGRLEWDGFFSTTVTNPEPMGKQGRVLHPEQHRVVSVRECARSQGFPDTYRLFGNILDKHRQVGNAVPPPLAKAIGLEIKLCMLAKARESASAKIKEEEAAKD
Compound,inhibition at 10 µM [2] [%],inhibition at 32 µM [2] [%],EC50 [2] [µM],Reactivation fold of luciferase gene reporter in KG-1 CMV-Luc ([1]; 0.1 μM) [fold],Reactivation fold of luciferase gene reporter in KG-1 CMV-Luc ([1]; 0.32 μM) [fold],Reactivation fold of luciferase gene reporter in KG-1 CMV-Luc ([1]; 0.5 μM) [fold],Reactivation fold of luciferase gene reporter in KG-1 CMV-Luc ([1]; 1 μM) [fold],Reactivation fold of luciferase gene reporter in KG-1 CMV-Luc ([1]; 3.2 μM) [fold],Reactivation fold of luciferase gene reporter in KG-1 CMV-Luc ([1]; 5 μM) [fold],Reactivation fold of luciferase gene reporter in KG-1 CMV-Luc ([1]; 10 μM),inhibition at 32 µM [3] [%]
"COc1ccc2cc1Oc1ccc(cc1)C[C@H]1c3c(cc(OC)c4c3Oc3cc5c(cc3O4)CCN(C)[C@H]5C2)CCN1C [Compound 2, Isotrilobine]",56,76,,1.0 ± 0.1,2.4 ± 1.4,2.8 ± 0.8,3.6 ± 2.9,2.4 ± 0.7,3.1 ± 0.6,6.1 ± 0.5 fold,
"COc1cc2c3c4c1Oc1cc5c(cc1O4)[C@H](Cc1ccc(O)c(c1)Oc1ccc(cc1)C[C@@H]3N(C)CC2)N(C)CC5 [Compound 4, Cocsuline]",23,66,> 10,,,,,,,,
"COc1cc2c3c4c1Oc1cc5c(cc1O4)[C@H](Cc1ccc(O)c(c1)Oc1ccc(cc1)C[C@@H]3N(C)CC2)NCC5 [Compound 6, Cocsoline]",37,91,> 10,,,,,,,,
"COc1ccc2cc1Oc1ccc(cc1)C[C@@H]1NCCc3cc(OC)c4c(c31)Oc1cc3c(cc1O4)CCN[C@H]3C2 [Compound 7, Nortrilobine]",83,94,,1.1 ± 0.2,1.7 ± 0.5,1.9 ± 1.3,2.6 ± 1.8,5.4 ± 2.6,12.3 ± 1.2,cyt. tox..,99
"COc1ccc2cc1Oc1ccc(cc1)C[C@H]1c3c(cc(OC)c4c3Oc3cc5c(cc3O4)CCN[C@H]5C2)CCN1C [Compound 3, O-Methylcocsoline]",95,100,,,,,,,,,
"COc1cc2c3c4c1Oc1cc5c(cc1O4)[C@H](Cc1ccc(O)c(c1)Oc1ccc(cc1)C[C@@H]3NCC2)N(C)CC5 [Compound 5, 2′-Norcocsuline]",73,88,,1.0 ± 0.2,2.3 ± 0.7,2.1 ± 0.6,2.6 ± 1.6,3.9 ± 0.4,5.1 ± 0.1,cyt. tox.,

# The next lines start with results.
inhibition at 10 µM [2] [%],inhibition at 32 µM [2] [%],EC50 [2] [µM],Compound,Reactivation fold of luciferase gene reporter in KG-1 CMV-Luc ([1]; 0.1 μM) [fold],Reactivation fold of luciferase gene reporter in KG-1 CMV-Luc ([1]; 0.32 μM) [fold],Reactivation fold of luciferase gene reporter in KG-1 CMV-Luc ([1]; 0.5 μM) [fold],Reactivation fold of luciferase gene reporter in KG-1 CMV-Luc ([1]; 1 μM) [fold],Reactivation fold of luciferase gene reporter in KG-1 CMV-Luc ([1]; 3.2 μM) [fold],Reactivation fold of luciferase gene reporter in KG-1 CMV-Luc ([1]; 5 μM) [fold],Reactivation fold of luciferase gene reporter in KG-1 CMV-Luc ([1]; 10 μM),inhibition at 32 µM [3] [%]
41,68,> 10,"COc1cc2c3c4c1Oc1cc5c(cc1O4)C(=NCC5)Cc1ccc(O)c(c1)Oc1ccc(cc1)C[C@@H]3N(C)CC2 [Compound 8, 1,2-Dehydroapateline]",,,,,,,,
37,63,> 10,"COc1ccc2cc1Oc1ccc(cc1)C[C@H]1c3c(cc(OC)c4c3Oc3cc5c(cc3O4)CCN=C5C2)CCN1C [Compound 9, 1,2-Dehydrotelobine]",,,,,,,,
